Inhibition and IC50 data for 28 compounds are collected here from patent publication US20130165464A1, “HETEROARYLS AND USES THEREOF” (MILLENNIUM PHARMACEUTICALS, INC., priority 2011, published 2013).

In the test the target is T1, VPS34 (Homo sapiens, UniProt Q8NEB9).
T1 construct: GST (N); host or cells: SF9 insect cells (baculovirus)
Description: Human VPS34 enzyme assay (Adapta TR-FRET). The format is biochemical. As to conditions: for inhibition at 1.11 µM: 1 h, at a 1.11 μM concentration, read-out: VPS34 Percent Inhibition. Here is the method: VPS34 (accession number GB:BCO33004) was cloned into pDEST20-Thombin as N-terminal GST tagged fusion proteins using the Gateway system (Invitrogen, catalog#11804-013). The sequences were verified before recombinant protein expression using the Baculovirus Expression System with Gateway® Technology.
For expression VPS34 was infected at 1MOI in SF9 cells and harvested 72 hours post infection.
For purification, VPS34 is purified by Glutathione Sepharose 4 Fast Flow (GE Healthcare #17-5132-03) followed by HiTrap Q (GE Healthcare #17-1153-01).
Human VPS34 Enzyme Assay Method
100 nL compounds in DMSO are added to wells of a 384 well microtitre plate (Greiner 780076). At room temperature: 5 ul VPS34 reaction buffer (Invitrogen Assay Buffer Q (diluted 1 in 5 with nanopure water) plus 2 mM DTT and 2 mM MnCl2) containing ATP (20 uM, Promega) and 200 uM PI-PS substrate (Invitrogen PV5122) is added followed immediately by 5 ul VPS34 reaction buffer (as above) containing VPS34 (5 nM, Millennium Protein Sciences Group) and the mixture is incubated with shaking at room temperature for 1 hour. Then 5 ul VPS34 stop-detect mix (as per Invitrogen Adapta Assay kit (PV5009) instructions (contains kinase quench buffer, TR-FRET buffer, Adapta Eu anti-ADP antibody and Alexa Fluor 647 ADP tracer)) is added to quench the reaction. The plates are then incubated for 30 minutes at room temperature with shaking and then read on a BMG PheraStar Plus reader.
For the assay methods described above, test compound percent inhibition, at various concentrations, is calculated relative to control (DMSO and EDTA) treated samples. Compound concentration versus percent inhibition curves are fitted to generate IC50 values. One skilled in the art will appreciate that the values generated either as percentage inhibition at a single concentration or IC50 values are subject to experimental variation.

Bounds are passed on as bounds.

T1 sequence (Q8NEB9 whole entry): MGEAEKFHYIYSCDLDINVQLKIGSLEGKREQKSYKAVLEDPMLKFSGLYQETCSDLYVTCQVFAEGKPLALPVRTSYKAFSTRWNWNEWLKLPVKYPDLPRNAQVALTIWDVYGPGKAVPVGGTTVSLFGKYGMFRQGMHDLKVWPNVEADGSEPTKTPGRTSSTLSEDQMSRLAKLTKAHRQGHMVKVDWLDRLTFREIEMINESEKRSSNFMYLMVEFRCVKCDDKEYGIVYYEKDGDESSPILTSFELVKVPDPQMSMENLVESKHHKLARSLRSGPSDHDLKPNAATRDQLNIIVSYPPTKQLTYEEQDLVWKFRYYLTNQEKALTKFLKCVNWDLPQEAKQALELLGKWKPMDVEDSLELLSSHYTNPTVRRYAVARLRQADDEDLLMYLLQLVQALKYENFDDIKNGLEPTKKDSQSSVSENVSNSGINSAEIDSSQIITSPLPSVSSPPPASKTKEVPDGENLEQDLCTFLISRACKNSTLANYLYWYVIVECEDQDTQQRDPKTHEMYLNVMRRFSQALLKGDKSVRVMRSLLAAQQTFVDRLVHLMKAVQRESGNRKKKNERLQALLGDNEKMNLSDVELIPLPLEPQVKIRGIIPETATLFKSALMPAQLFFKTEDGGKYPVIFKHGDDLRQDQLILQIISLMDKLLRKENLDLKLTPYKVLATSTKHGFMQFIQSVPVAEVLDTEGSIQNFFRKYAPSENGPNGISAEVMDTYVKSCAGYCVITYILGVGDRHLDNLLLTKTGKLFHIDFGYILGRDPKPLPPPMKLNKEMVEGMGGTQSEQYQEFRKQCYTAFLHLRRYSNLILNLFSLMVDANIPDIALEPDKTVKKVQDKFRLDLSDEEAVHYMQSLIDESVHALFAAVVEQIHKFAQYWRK

For `CC(=O)Nc1cc(-n2cc(-c3nc[nH]n3)c(-c3ccccc3S(C)(=O)=O)c2)ccn1` [I-38, N-(4-{3-[2-(methylsulfonyl)phenyl]-4-(1H-1,2,4-triazol-3-yl)-1H-pyrrol-1-yl}pyridin-2-yl)acetamide], the inhibition (as a rule, the percentage by which the read-out fell short of the control) at 1.11 µM was over 99%.

For the compound `CC(=O)Nc1cc(-n2cc(-c3nnc[nH]3)c(-c3ccc(Cl)cc3Cl)n2)c(C)cn1` [I-39, N-{4-[3-(2,4-dichlorophenyl)-4-(4H-1,2,4-triazol-3-yl)-1H-pyrazol-1-yl]-5-methylpyridin-2-yl}acetamide], the IC50 (commonly the point on the concentration scale where inhibition reaches its midpoint) was under 50 nM and the inhibition at 1.11 µM is over 99%.

Consider `Cc1cnc(NC(=O)C2CC2)cc1-n1cc(C(N)=O)c(-c2ccccc2Cl)c1` [I-40, 4-(2-chlorophenyl)-1-{2-[(cyclopropylcarbonyl)amino]-5-methylpyridin-4-yl}-1H-pyrrole-3-carboxamide], for which the IC50 is under 50 nM and the inhibition at 1.11 µM is over 99%.

Turning to `CC(=O)Nc1cc(-n2cc(C(N)=O)c(-c3ccccc3Cl)c2)c(C)cn1` [I-41, 1-(2-acetamido-5-methylpyridin-4-yl)-4-(2-chlorophenyl)-1H-pyrrole-3-carboxamide], the inhibition at 1.11 µM turned out to be 78%.

Regarding `CC(=O)Nc1cc(-n2cc(-c3nc[nH]n3)c(-c3cc(CN(C)C)ccc3Cl)n2)c(C)cn1` [I-42, N-{4-[3-{2-chloro-5-[(dimethylamino)methyl]phenyl}-4-(1H-1,2,4-triazol-3-yl)-1H-pyrazol-1-yl]-5-methylpyridin-2-yl}acetamide], the IC50 was under 50 nM and the inhibition at 1.11 µM is over 99%.

Consider `NC(=O)c1cn(-c2ccnc(NCCc3ccc(O)cc3)n2)nc1-c1ccccc1Cl` [I-43, 3-(2-chlorophenyl)-1-(2-{[2-(4-hydroxyphenyl)ethyl]amino}pyrimidin-4-yl)-1H-pyrazole-4-carboxamide], for which the IC50 was in the range of 1000 to 5000 nM and the inhibition at 1.11 µM was 27%.

Consider `CC(=O)Nc1cc(-n2cc(-c3nc[nH]n3)c(-c3ccccc3Cl)n2)c(F)cn1` [I-44, N-{4-[3-(2-chlorophenyl)-4-(1H-1,2,4-triazol-3-yl)-1H-pyrazol-1-yl]-5-fluoropyridin-2-yl}acetamide], for which the IC50 was under 50 nM and the inhibition at 1.11 µM is over 99%.

Regarding `COC(=O)Nc1cc(-n2cc(-c3nc[nH]n3)c(-c3ccccc3Cl)n2)c(C)cn1` [I-45, methyl {4-[3-(2-chlorophenyl)-4-(4H-1,2,4-triazol-3-yl)-1H-pyrazol-1-yl]-5-methylpyridin-2-yl}carbamate], the inhibition at 1.11 µM was over 99%.

Consider `Cc1cnc(NC(=O)C2CC2)cc1-n1cc(-c2nc[nH]n2)c(-c2ccccc2Cl)n1` [I-46, N-{4-[3-(2-chlorophenyl)-4-(1H-1,2,4-triazol-3-yl)-1H-pyrazol-1-yl]-5-methylpyridin-2-yl}cyclopropanecarboxamide], for which the IC50 is under 50 nM and the inhibition at 1.11 µM is over 99%.

For the compound `CC(=O)Nc1cc(-n2cc(C(N)=O)c(-c3ccccc3S(C)(=O)=O)c2)ccn1` [I-47, 1-(2-acetamidopyridin-4-yl)-4-[2-(methylsulfonyl)phenyl]-1H-pyrrole-3-carboxamide], the IC50 lay within 150 to 1000 nM and the inhibition at 1.11 µM was 64%.

With `CC(=O)Nc1cc(-n2cc(-c3nc[nH]n3)c(-c3ccccc3C(F)(F)F)n2)c(C)cn1` [I-48, N-(5-methyl-4-{4-(1H-1,2,4-triazol-3-yl)-3-[2-(trifluoromethyl)phenyl]-1H-pyrazol-1-yl}pyridin-2-yl)acetamide], the inhibition at 1.11 µM was over 99%.

With `COc1ccccc1-c1nn(-c2cc(NC(C)=O)ncc2C)cc1-c1nc[nH]n1` [I-49, N-{4-[3-(2-methoxyphenyl)-4-(1H-1,2,4-triazol-3-yl)-1H-pyrazol-1-yl]-5-methylpyridin-2-yl}acetamide], the IC50 was in the range of 150 to 1000 nM and the inhibition at 1.11 µM was 56%.

Consider `CCC(=O)Nc1cc(-n2cc(-c3nc[nH]n3)c(-c3ccccc3Cl)c2)c(C)cn1` [I-50, N-{4-[3-(2-chlorophenyl)-4-(1H-1,2,4-triazol-3-yl)-1H-pyrrol-1-yl]-5-methylpyridin-2-yl}propanamide], for which the half-maximal inhibitory concentration (IC50) is under 50 nM and the inhibition at 1.11 µM is over 99%.

For `COC(=O)Nc1cc(-n2cc(C(N)=O)c(-c3ccccc3Cl)c2)c(Cl)cn1` [I-51, methyl {4-[3-carbamoyl-4-(2-chlorophenyl)-1H-pyrrol-1-yl]-5-chloropyridin-2-yl}carbamate], the inhibition at 1.11 µM was 85%.

For the compound `CC(=O)Nc1cc(-n2cc(-c3nc[nH]n3)c(-c3ccccc3C#N)n2)c(C)cn1` [I-52, N-{4-[3-(2-cyanophenyl)-4-(1H-1,2,4-triazol-3-yl)-1H-pyrazol-1-yl]-5-methylpyridin-2-yl}acetamide], the inhibition at 1.11 µM was over 99%.

On to `CC(=O)Nc1cc(-n2cc(-c3ccccc3)c(-c3nnc[nH]3)c2)c(C)cn1` [I-53, N-{5-methyl-4-[3-phenyl-4-(4H-1,2,4-triazol-3-yl)-1H-pyrrol-1-yl]pyridin-2-yl}acetamide], for which the concentration for half-maximal inhibition (IC50) was in the range of 150 to 1000 nM and the inhibition at 1.11 µM amounted to 81%.

For `COCCOC(=O)Nc1cc(-n2cc(C(N)=O)c(-c3ccccc3Cl)c2)c(C)cn1` [I-54, 2-methoxyethyl {4-[3-carbamoyl-4-(2-chlorophenyl)-1H-pyrrol-1-yl]-5-methylpyridin-2-yl}carbamate], the inhibition at 1.11 µM was over 99%.

As to `COC(=O)Nc1cc(-n2cc(-c3nc[nH]n3)c(-c3ccccc3Cl)c2)c(C)cn1` [I-55, methyl {4-[3-(2-chlorophenyl)-4-(1H-1,2,4-triazol-3-yl)-1H-pyrrol-1-yl]-5-methylpyridin-2-yl}carbamate], the IC50 is under 50 nM and the inhibition at 1.11 µM was over 99%.

Take `O=C(Nc1cc(-n2cc(-c3nc[nH]n3)c(-c3ccccc3Cl)n2)c(F)cn1)C1CC1` [I-56, N-{4-[3-(2-chlorophenyl)-4-(1H-1,2,4-triazol-3-yl)-1H-pyrazol-1-yl]-5-fluoropyridin-2-yl}cyclopropanecarboxamide]: the IC50 is under 50 nM and the inhibition at 1.11 µM was over 99%.

In the case of `CCc1ccccc1-c1nn(-c2cc(NC(C)=O)ncc2C)cc1-c1nc[nH]n1` [I-57, N-{4-[3-(2-ethylphenyl)-4-(1H-1,2,4-triazol-3-yl)-1H-pyrazol-1-yl]-5-methylpyridin-2-yl}acetamide], the half-inhibitory concentration (IC50) lay within 150 to 1000 nM and the inhibition at 1.11 µM stood at 94%.

As for `CCN(CC)Cc1ccc(Cl)c(-c2nn(-c3cc(NC(C)=O)ncc3C)cc2-c2nc[nH]n2)c1` [I-58, N-{4-[3-{2-chloro-5-[(diethylamino)methyl]phenyl}-4-(1H-1,2,4-triazol-3-yl)-1H-pyrazol-1-yl]-5-methylpyridin-2-yl}acetamide], the inhibition at 1.11 µM was over 99%.

As to `CC(=O)Nc1cc(-n2cc(-c3nc[nH]n3)c(-c3ccccc3SC(F)(F)F)n2)c(C)cn1` [I-59, N-{5-methyl-4-[4-(1H-1,2,4-triazol-3-yl)-3-{2-[(trifluoromethyl)sulfanyl]phenyl}-1H-pyrazol-1-yl]pyridin-2-yl}acetamide], the IC50 is 150 to 1000 nM and the inhibition at 1.11 µM is 75%.

In the case of `Cc1cnc(NC(=O)C2CC2)cc1-n1cc(-c2ncc[nH]2)c(-c2ccccc2Cl)n1` [I-60, N-{4-[3-(2-chlorophenyl)-4-(1H-imidazol-2-yl)-1H-pyrazol-1-yl]-5-methylpyridin-2-yl}cyclopropanecarboxamide], the concentration for half-maximal inhibition (IC50) was under 50 nM and the inhibition at 1.11 µM was over 99%.

Take `COC(=O)Nc1cc(-n2cc(-c3nc[nH]n3)c(-c3cc(CN4CCCC4)ccc3Cl)n2)c(C)cn1` [I-61, methyl (4-{3-[2-chloro-5-(pyrrolidin-1-ylmethyl)phenyl]-4-(1H-1,2,4-triazol-3-yl)-1H-pyrazol-1-yl}-5-methylpyridin-2-yl)carbamate]: the inhibition at 1.11 µM was over 99%.

In the case of `CC(=O)Nc1cc(-n2cc(-c3nnc[nH]3)c(I)n2)c(C)cn1` [I-62, N-{4-[3-iodo-4-(1H-1,2,4-triazol-3-yl)-1H-pyrazol-1-yl]-5-methylpyridin-2-yl}acetamide], the half-maximal inhibitory concentration (IC50) lay in the range of 150 to 1000 nM and the inhibition at 1.11 µM is 59%.

With `Cc1cnc(NC(=O)C2CC2)cc1-n1cc(CO)c(-c2ccccc2Cl)n1` [I-63, N-{4-[3-(2-chlorophenyl)-4-(hydroxymethyl)-1H-pyrazol-1-yl]-5-methylpyridin-2-yl}cyclopropanecarboxamide], the IC50 is 150 to 1000 nM and the inhibition at 1.11 µM turned out to be 62%.

For the compound `COC(=O)Nc1cc(-n2cc(-c3ncc[nH]3)c(-c3ccccc3Cl)n2)c(C)cn1` [I-64, methyl {4-[3-(2-chlorophenyl)-4-(1H-imidazol-2-yl)-1H-pyrazol-1-yl]-5-methylpyridin-2-yl}carbamate], the IC50 was under 50 nM and the inhibition at 1.11 µM is over 99%.

With `CC(=O)Nc1cc(-n2cc(-c3nc[nH]n3)c(-c3ccc(F)cc3Cl)n2)c(C)cn1` [I-65, N-{4-[3-(2-chloro-4-fluorophenyl)-4-(1H-1,2,4-triazol-3-yl)-1H-pyrazol-1-yl]-5-methylpyridin-2-yl}acetamide], the inhibition at 1.11 µM was over 99%.
